Patent publication US20240158369A1, “PYRIMIDINE COMPOUND AS WEE-1 INHIBITOR” (WIGEN BIOMEDICINE TECHNOLOGY (SHANGHAI) CO., LTD., priority 2021, published 2024)
Read-outs that look alike come from different tables or passages of the source.

Experiments:
[1] = target: recombinant protein Wee-1 (Homo sapiens (Human), UniProt P30291); experiment: HTRF assay for inhibiting enzymatic activity of recombinant protein Wee-1; format: biochemical; conditions: compounds up to 200 nM, read-out: (IC50) Inhibitory activity against recombinant protein Wee-1
Experimental: The inhibitory effect of the compounds on the enzyme activity of recombinant protein Wee-1 was determined by HTRF. The procedures are as follows:
After DMSO or serially diluted compounds (up to 200 nM, 1:5 diluted) and recombinant proteins were co-incubated in a kinase buffer at 37° C. for 30 min before Fluorescein-PolyGAT and ATP were added, and the reaction was initiated by addition of a substrate. After incubation at room temperature for 90 min, an antibody and a detection solution were added, and after further incubation at room temperature for 60 min, fluorescence values were detected (excitation wavelength: 340 nm, emission wavelengths: 495 and 520 nm). The 520 nm/495 nm fluorescence intensity ratio value was calculated, and compared with that of the DMSO group, and then the inhibition percentages and IC50 values of the compounds were calculated.

[2] = test system: MIA PaCa-2 cells; experiment: In-vitro anti-proliferative activity in combination with gemcitabine on MIA PaCa-2 cells; format: cell-based; conditions: 72 h
Experimental: MIA PaCa-2 cells were seeded on a 384-well plate at 3000 cells/well, and 20 nM or 200 nM gemcitabine (GMC) was added. After overnight adherence culture, DMSO or the compounds serially 1:5-diluted from 100 nM were added. The viability was assessed 72 h after dosing by measuring the intracellular ATP content. The inhibition percentage of viable cells by the compounds was calculated by comparing with the DMSO group, and the IC50 value was calculated.

[3] = test system: HT29 subcutaneous xenograft tumor; experiment: Mouse HT29 subcutaneous xenograft tumor model (Example 164), alone or with 15 mg/kg gemcitabine; format: in vivo
Experimental: HT29 is a colon cancer cell. Each nude mouse was grafted subcutaneously with 5×10^6HT29 cells. When the tumor grew to 100-200 mm^3, the compound was administered orally once a day alone or in combination with 15 mg/kg of gemcitabine injected intraperitoneally once a week, and the tumor volume was measured twice a week and at the end of treatment. Tumor growth inhibition of the compound was calculated according to the following equation: tumor growth inhibition (TGI)=1−(tumor volume on day 20 in treatment group−tumor volume on day 1 in treatment group)/(tumor volume on day 20 in vehicle control group−tumor volume on day 1 in treatment group).

[4] = with 200 nM gemcitabine, read-out: in combination with 200 nM GMC IC50
[5] = 30 mg/kg orally once a day in combination with 15 mg/kg of gemcitabine ip once a week, day 1
[6] = 30 mg/kg orally once a day in combination with 15 mg/kg of gemcitabine ip once a week, day 20
[7] = monotherapy, 30 mg/kg orally once a day, nude mouse HT29, day 1
[8] = monotherapy, 30 mg/kg orally once a day, nude mouse HT29, day 20
[9] = with 20 nM gemcitabine, read-out: in combination with 20 nM GMC IC50

Sequence of recombinant protein Wee-1 (P30291 whole entry): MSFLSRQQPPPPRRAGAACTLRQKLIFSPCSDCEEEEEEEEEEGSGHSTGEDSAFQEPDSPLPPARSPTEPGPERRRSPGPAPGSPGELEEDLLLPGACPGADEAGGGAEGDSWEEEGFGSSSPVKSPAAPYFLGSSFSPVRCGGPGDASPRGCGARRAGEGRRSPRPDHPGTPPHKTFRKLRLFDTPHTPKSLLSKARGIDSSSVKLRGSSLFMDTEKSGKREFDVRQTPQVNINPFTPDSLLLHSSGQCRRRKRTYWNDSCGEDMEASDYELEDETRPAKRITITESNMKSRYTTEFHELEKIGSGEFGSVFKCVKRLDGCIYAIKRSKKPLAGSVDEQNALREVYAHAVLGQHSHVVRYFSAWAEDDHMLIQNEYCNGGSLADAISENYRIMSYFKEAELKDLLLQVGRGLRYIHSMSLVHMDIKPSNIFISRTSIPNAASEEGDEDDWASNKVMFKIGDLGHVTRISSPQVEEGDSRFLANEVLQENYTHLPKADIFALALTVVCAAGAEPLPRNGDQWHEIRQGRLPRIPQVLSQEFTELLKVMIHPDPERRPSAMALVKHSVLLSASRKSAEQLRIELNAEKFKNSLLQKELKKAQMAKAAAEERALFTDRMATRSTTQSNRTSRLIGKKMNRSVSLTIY

SMILES | IC50 [1] | IC50 [2, 9] | also measured
CCc1cc(Nc2ncc(C#N)c(Nc3cccc(N=S(C)(C)=O)n3)n2)cc2c1CCN(C)C2 [Compound 13] | ≤ 10 nM | – | IC50 [2, 4]: 1 nM; Tumor volume on day 1 of treatment (mm^3) [3, 5]: 102 mm^3; TGI [3, 6]: 109%; Tumor volume on day 20 of treatment (mm^3) [3, 6]: 14 mm^3; Tumor volume on day 1 of treatment (mm^3) [3, 7]: 102 mm^3; TGI [3, 8]: 97%; Tumor volume on day 20 of treatment (mm^3) [3, 8]: 129 mm^3
CN1CCc2c(cc(Nc3ncc(C#N)c(Nc4cccc(N=S(C)(C)=O)n4)n3)cc2C2CC2)C1 [Compound 16] | ≤ 10 nM | – | IC50 [2, 4]: 1 nM; Tumor volume on day 1 of treatment (mm^3) [3, 5]: 102 mm^3; TGI [3, 6]: 104%; Tumor volume on day 20 of treatment (mm^3) [3, 6]: 58 mm^3; Tumor volume on day 1 of treatment (mm^3) [3, 7]: 102 mm^3; TGI [3, 8]: 79%; Tumor volume on day 20 of treatment (mm^3) [3, 8]: 307 mm^3
CN1CCc2ccc(Nc3ncc(C#N)c(N4CCc5c(N=S(C)(C)=O)cccc54)n3)cc2C1 [Compound 77] | ≤ 10 nM | – | IC50 [2, 4]: > 100 nM
CN1CCc2ccc(Nc3ncc(C#N)c(-c4c[nH]c5c(N=S(C)(C)=O)cccc45)n3)cc2C1 [Compound 78] | ≤ 10 nM | > 100 nM | –
CN1CCc2ccc(Nc3ncc(C#N)c(-c4cn(C)c5c(N=S(C)(C)=O)cccc45)n3)cc2C1 [Compound 79] | ≤ 10 nM | – | IC50 [2, 4]: > 100 nM
CN1CCc2ccc(Nc3ncc(C#N)c(-n4cnc5c(N=S(C)(C)=O)cccc54)n3)cc2C1 [Compound 80] | 10 to 50 nM | – | IC50 [2, 4]: > 100 nM
C=Cc1cc(N=S(C)(C)=O)nc(Nc2nc(Nc3ccc4c(c3)CN(C)CC4)ncc2C#N)c1 [Compound 85] | ≤ 10 nM | – | IC50 [2, 4]: > 100 nM
CN1CCc2ccc(Nc3ncc(I)c(Nc4cccc(N=S(C)(C)=O)n4)n3)cc2C1 [Compound 105] | ≤ 10 nM | 26.5 nM | –
CN1CCc2ccc(Nc3ncc(C#N)c(Oc4cccc(N=S(C)(C)=O)n4)n3)cc2C1 [Compound 106] | ≤ 10 nM | > 100 nM | –
C#Cc1cnc(Nc2ccc3c(c2)CN(C)CC3)nc1Nc1cccc(N=S(C)(C)=O)n1 [Compound 107] | ≤ 10 nM | 26.6 nM | –
CN1CCc2ccc(Nc3ncc(-c4ccc(F)nc4)c(Nc4cccc(N=S(C)(C)=O)n4)n3)cc2C1 [Compound 108] | 10 to 50 nM | > 100 nM | –
CN1CCc2c(cc(Nc3ncc(C#N)c(Nc4cccc(N=S(C)(C)=O)n4)n3)cc2-c2ccccc2)C1 [Compound 111] | ≤ 10 nM | 6.5 nM | –
CN1CCc2c(cc(Nc3ncc(C#N)c(Nc4cccc(N=S(C)(C)=O)n4)n3)cc2-c2cc[nH]n2)C1 [Compound 112] | ≤ 10 nM | > 100 nM | –
CN1CCc2c(cc(Nc3ncc(C#N)c(Nc4cccc(N=S(C)(C)=O)n4)n3)cc2-c2ccn(C)n2)C1 [Compound 113] | ≤ 10 nM | 11.7 nM | –
CN1CCc2c(cc(Nc3ncc(C#N)c(Nc4cccc(N=S(C)(C)=O)n4)n3)cc2N2CCCCC2)C1 [Compound 115] | ≤ 10 nM | 9.3 nM | –
CN1CCc2c(cc(Nc3ncc(C#N)c(Nc4cccc(N=S(C)(C)=O)n4)n3)cc2N2CCOCC2)C1 [Compound 116] | ≤ 10 nM | 1.3 nM | –
CN1CCc2c(cc(Nc3ncc(C#N)c(Nc4cccc(N=S(C)(C)=O)n4)n3)cc2C2=CCOCC2)C1 [Compound 118] | ≤ 10 nM | 1.1 nM | –
CN1CCN(c2cc(Nc3ncc(C#N)c(Nc4cccc(N=S(C)(C)=O)n4)n3)cc3c2CCN(C)C3)CC1 [Compound 119] | ≤ 10 nM | 2.6 nM | –
COC1CCN(c2cc(Nc3ncc(C#N)c(Nc4cccc(N=S(C)(C)=O)n4)n3)cc3c2CCN(C)C3)CC1 [Compound 120] | ≤ 10 nM | 4.5 nM | –

SMILES | IC50 [1] | IC50 [2, 9] | also measured
CN1CCc2c(cc(Nc3ncc(C#N)c(Nc4cccc(N=S(C)(C)=O)n4)n3)cc2CN2CCOCC2)C1 [Compound 121] | ≤ 10 nM | 113 nM | –
C[C@@H]1CN(c2cc(Nc3ncc(C#N)c(Nc4cccc(N=S(C)(C)=O)n4)n3)cc3c2CCN(C)C3)C[C@@H](C)O1 [Compound 122] | ≤ 10 nM | 49 nM | –
CC1CN(c2cc(Nc3ncc(C#N)c(Nc4cccc(N=S(C)(C)=O)n4)n3)cc3c2CCN(C)C3)CCO1 (stereo not shown) [Compound 123] | ≤ 10 nM | 28 nM | –
COCc1cc(Nc2ncc(C#N)c(Nc3cccc(N=S(C)(C)=O)n3)n2)cc2c1CCN(C)C2 [Compound 124] | ≤ 10 nM | 2.7 nM | –
C[C@@H]1CN(c2cc(Nc3ncc(C#N)c(Nc4cccc(N=S(C)(C)=O)n4)n3)cc3c2CCN(C)C3)C[C@H](C)O1 [Compound 127] | ≤ 10 nM | 8.2 nM | –
COC/C=C/c1cc(Nc2ncc(C#N)c(Nc3cccc(N=S(C)(C)=O)n3)n2)cc2c1CCN(C)C2 [Compound 129] | ≤ 10 nM | 4.2 nM | –
CN(C)Cc1cc(Nc2ncc(C#N)c(Nc3cccc(N=S(C)(C)=O)n3)n2)cc2c1CCN(C)C2 [Compound 130] | ≤ 10 nM | 10 nM | –
CN1CCc2c(CO)cc(Nc3ncc(C#N)c(Nc4cccc(N=S(C)(C)=O)n4)n3)cc2C1 [Compound 131] | ≤ 10 nM | 6.7 nM | –
CCN1CCc2c(cc(Nc3ncc(C#N)c(Nc4cccc(N=S(C)(C)=O)n4)n3)cc2C2CC2)C1 [Compound 137] | ≤ 10 nM | 3.3 nM | Tumor volume on day 1 of treatment (mm^3) [3, 5]: 102 mm^3; TGI [3, 6]: 100%; Tumor volume on day 20 of treatment (mm^3) [3, 6]: 97 mm^3; Tumor volume on day 1 of treatment (mm^3) [3, 7]: 102 mm^3; TGI [3, 8]: 51%; Tumor volume on day 20 of treatment (mm^3) [3, 8]: 573 mm^3
CN1CCc2ccc(Nc3nccc(Nc4cccc(N=S(C)(C)=O)n4)n3)cc2C1 [Compound 145] | > 50 nM | > 100 nM | –
CS(C)(=O)=Nc1cccc(Nc2nc(Nc3ccc4c(c3)CCC(N3CCCC3)CC4)ncc2C#N)n1 (stereo not shown) [Compound 146] | ≤ 10 nM | 4.8 nM | –
COc1cc2c(cc1Nc1ncc(C#N)c(Nc3cccc(N=S(C)(C)=O)n3)n1)CN(C)CC2 [Compound 147] | ≤ 10 nM | 50 nM | –
CS(C)(=O)=Nc1cccc(Nc2nc(Nc3cc4c(c(C5CC5)c3)CCNC4)ncc2C#N)n1 [Compound 148] | ≤ 10 nM | 2.1 nM | –
CN1CCc2c(cc(Nc3ncc(C#N)c(Nc4ccccc4N=S(C)(C)=O)n3)cc2C2CC2)C1 [Compound 150] | 10 to 50 nM | 3.5 nM | –
CN1CCc2c(cc(Nc3ncc(C#N)c(Nc4cccc(N=S(C)(C)=O)n4)n3)cc2C2=CCCCC2)C1 [Compound 152] | ≤ 10 nM | 3.8 nM | –
Cc1cc(Nc2ncc(C#N)c(Nc3cccc(N=S(C)(C)=O)n3)n2)ccc1N1CCN(C)CC1 [Compound 153] | ≤ 10 nM | 3.5 nM | –
Cc1cc(Nc2ncc(C#N)c(Nc3cccc(N=S(C)(C)=O)n3)n2)cc(C)c1N1CCN(C)CC1 [Compound 154] | ≤ 10 nM | 2.4 nM | –
CN1CCN(c2ccc(Nc3ncc(C#N)c(Nc4cccc(N=S(C)(C)=O)n4)n3)cc2C2CC2)CC1 [Compound 155] | ≤ 10 nM | 5.4 nM | –
Cc1cc(Nc2ncc(C#N)c(Nc3cccc(N=S(C)(C)=O)n3)n2)cc(C2CC2)c1N1CCN(C)CC1 [Compound 156] | ≤ 10 nM | 6 nM | –
